Patent publication US12655116B2, “Substituted isophthalic acid diamides” (Bayer Aktiengesellschaft, priority 2020, dated 2026)

Experiments:
PHBPU [1] = assay: Post-emergence herbicidal action against PHBPU; assay type: in vivo, Pharbitis purpurea
Method in brief: (§1)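 Greenhouse pot plants in sandy loam were sprayed at the one-leaf stage, 2 to 3 weeks after sowing, with WP or EC formulations as aqueous suspension or emulsion (600 to 800 l/ha water, 0.2% wetting agent). About 3 weeks later, damage was scored visually against untreated controls as % action (100% = dead, 0% = like control).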

ALOMY [2] = assay: Pre-emergence herbicidal action against ALOMY; assay type: in vivo, Alopecurus myosuroides; conditions: pre-emergence
Method in brief: (§2)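 Visual rating at 3 weeks vs untreated pots; 0–100% scale, 100% = plants died. Treatment: aqueous WP/EC spray onto covering soil, 600–800 l/ha, 0.2% wetter, seeds in sandy loam.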

ECHCG [3] = assay: Pre-emergence herbicidal action against ECHCG; assay type: in vivo, Echinochloa crus-galli
Method in brief: as §2

POLCO = assay: Pre-emergence herbicidal action against POLCO; assay type: in vivo, Polygonum convolvulus
Method in brief: as §2

MATIN [4] = assay: Pre-emergence herbicidal action against MATIN; assay type: in vivo, Matricaria inodora
Method in brief: as §2

LOLRI = assay: Pre-emergence herbicidal action against LOLRI; assay type: in vivo, Lolium rigidum; conditions: 80 g/ha
Method in brief: as §2

ALOMY [5] = assay: Post-emergence herbicidal action against ALOMY; assay type: in vivo, Alopecurus myosuroides; conditions: visual assessment about 3 weeks after treatment vs untreated controls
Method in brief: as §1

SETVI [6] = assay: Post-emergence herbicidal action against SETVI; assay type: in vivo, Setaria viridis
Method in brief: as §1

VIOTR [7] = assay: Post-emergence herbicidal action against VIOTR; assay type: in vivo, Viola tricolor; conditions: 20 g/ha
Method in brief: as §1

AVEFA [8] = assay: Post-emergence herbicidal action against AVEFA; assay type: in vivo, Avena fatua; conditions: 20 g/ha, visual assessment about 3 weeks after treatment, 100% = plants have died, 0% = like control plants
Method in brief: as §1

AVEFA [9] = assay: Pre-emergence herbicidal action against AVEFA; assay type: in vivo, Avena fatua; conditions: 80 g/ha, pre-emergence
Method in brief: as §2

SETVI [10] = assay: Pre-emergence herbicidal action against SETVI; assay type: in vivo, Setaria viridis
Method in brief: as §2

ECHCG [11] = assay: Post-emergence herbicidal action against ECHCG; assay type: in vivo, Echinochloa crus-galli
Method in brief: as §1

VIOTR [12] = assay: Pre-emergence herbicidal action against VIOTR; assay type: in vivo, Viola tricolor
Method in brief: as §2

AMARE [13] = assay: Pre-emergence herbicidal action against AMARE; assay type: in vivo, Amaranthus retroflexus
Method in brief: as §2

MATIN [14] = assay: Post-emergence herbicidal action against MATIN; assay type: in vivo, Matricaria inodora
Method in brief: as §1

DIGSA = assay: Pre-emergence herbicidal action against DIGSA; assay type: in vivo, Digitaria sanguinalis
Method in brief: as §2

PHBPU [15] = assay: Pre-emergence herbicidal action against PHBPU; assay type: in vivo, Pharbitis purpurea
Method in brief: as §2

ABUTH = assay: Pre-emergence herbicidal action against ABUTH; assay type: in vivo, Abutilon theophrasti
Method in brief: as §2

AMARE [16] = assay: Post-emergence herbicidal action against AMARE; assay type: in vivo, Amaranthus retroflexus; conditions: Amaranthus retroflexus, 504 h, 20 g/ha, visual assessment about 3 weeks after treatment, 100% = plants have died, 0% = like control plants
Method in brief: as §1

VERPE = assay: Pre-emergence herbicidal action against VERPE; assay type: in vivo, Veronica persica; conditions: Veronica persica, 504 h, dosage 80 g/ha
Method in brief: as §2

[17] = 80 g/ha, scored visually after 3 weeks vs untreated controls (100% = plants have died, 0% = like control plants)
[18] = Ipomoea purpurea, 504 h, dosage 20 g/ha
[19] = Tripleurospermum inodorum, 504 h, dosage 20 g/ha

CCn1nnnc1NC(=O)c1ccc(Br)c(C(=O)NCC(F)F)c1Cl [Example 2-182]
Post-emergence action against PHBPU in % (PHBPU [1]; dosage 5 g/ha): 80%
Post-emergence action against PHBPU in % (PHBPU [1]; dosage 20 g/ha): 90%
Pre-emergence action against ALOMY (herbicidal activity) (ALOMY [2]; [17]): 80%
Pre-emergence action against ECHCG in % (ECHCG [3]; 80 g/ha): 100%
Pre-emergence action against POLCO in % (POLCO; dosage 80 g/ha): 90%
Pre-emergence action against MATIN in % (MATIN [4]; dosage 20 g/ha): 90%
Pre-emergence action against MATIN in % (MATIN [4]; dosage 80 g/ha): 100%
Pre-emergence action against LOLRI in % (LOLRI): 80%
Post-emergence action against ALOMY in % (ALOMY [5]; dosage 5 g/ha): 80%
Post-emergence action against ALOMY in % (ALOMY [5]; dosage 20 g/ha): 100%
Post-emergence action against SETVI in % (SETVI [6]; dosage 5 g/ha): 90%
Post-emergence action against SETVI in % (SETVI [6]; dosage 20 g/ha): 100%
Post-emergence action against VIOTR in % (VIOTR [7]): 100%
Post-emergence action at 20 g/ha against AVEFA in % (AVEFA [8]): 80%
Pre-emergence action against AVEFA in % (AVEFA [9]): 90%
Pre-emergence action against SETVI in % (SETVI [10]; dosage 20 g/ha): 90%
Pre-emergence action against SETVI in % (SETVI [10]; dosage 80 g/ha): 100%
Post-emergence action against ECHCG in % (ECHCG [11]; dosage 5 g/ha): 90%
Post-emergence action against ECHCG in % (ECHCG [11]; dosage 20 g/ha): 90%
Pre-emergence action against VIOTR in % (VIOTR [12]; dosage 20 g/ha): 100%
Pre-emergence action against VIOTR in % (VIOTR [12]; dosage 80 g/ha): 100%
Pre-emergence action against AMARE in % (AMARE [13]; 20 g/ha, scored visually after 3 weeks vs untreated controls, 100% = plants have died, 0% = like control plants): 100%
Pre-emergence action against AMARE in % (AMARE [13]; [17]): 100%
Post-emergence action against MATIN in % (MATIN [14]; dosage 5 g/ha): 90%
Post-emergence action against MATIN in % (MATIN [14]; dosage 20 g/ha): 90%
Pre-emergence action against DIGSA in % (DIGSA; dosage 20 g/ha): 100%
Pre-emergence action against DIGSA in % (DIGSA; dosage 80 g/ha): 100%
Pre-emergence action against PHBPU in % (PHBPU [15]; dosage 80 g/ha): 90%
Pre-emergence action against ABUTH (herbicidal activity) (ABUTH; [17]): 100%
Pre-emergence action against ABUTH (herbicidal activity in percent) (ABUTH; dosage 20 g/ha, scored visually after 3 weeks vs untreated controls, 100% = plants have died, 0% = like control plants): 100%

CC(C)NC(=O)c1c(C(F)(F)F)ccc(C(=O)Nc2nnnn2C)c1Cl [Example 1-137]
pest or weed control at 5 g/ha (PHBPU [1]; Ipomoea purpurea, 504 h, dosage 5 g/ha): 80%
pest or weed control at 20 g/ha (PHBPU [1]; [18]): 80%
pest or weed control at 80 g/ha (ALOMY [2]; Alopecurus myosuroides, 504 h, 80 g/ha, scored visually after 3 weeks vs untreated controls (100% = plants have died, 0% = like control plants)): 90%
pest or weed control at 20 g/ha (ALOMY [2]; Alopecurus myosuroides, 504 h, 20 g/ha, scored visually after 3 weeks, 100% = plants have died, 0% = like control plants): 90%
pest or weed control at 20 g/ha (ECHCG [3]; Echinochloa crus-galli, 504 h, 20 g/ha): 80%
pest or weed control at 80 g/ha (ECHCG [3]; Echinochloa crus-galli, 504 h, 80 g/ha): 100%
pest or weed control at 20 g/ha (POLCO; Fallopia convolvulus, 504 h, dosage 20 g/ha): 80%
pest or weed control at 80 g/ha (POLCO; Fallopia convolvulus, 504 h, dosage 80 g/ha): 100%
pest or weed control at 20 g/ha (MATIN [4]; [19]): 100%
pest or weed control at 80 g/ha (MATIN [4]; Tripleurospermum inodorum, 504 h, dosage 80 g/ha): 100%
pest or weed control at 80 g/ha (LOLRI; Lolium rigidum, 504 h): 90%
pest or weed control at 20 g/ha (ALOMY [5]; Alopecurus myosuroides, 504 h, dosage 20 g/ha): 90%
pest or weed control at 20 g/ha (SETVI [6]; Setaria viridis, 504 h, dosage 20 g/ha): 80%
pest or weed control at 20 g/ha (AMARE [16]): 90%
pest or weed control at 20 g/ha (AVEFA [8]; Avena fatua, 504 h): 80%
pest or weed control at 80 g/ha (AVEFA [9]; Avena fatua, 504 h): 90%
pest or weed control at 80 g/ha (SETVI [10]; Setaria viridis, 504 h, dosage 80 g/ha): 100%
pest or weed control at 80 g/ha (VERPE): 90%
pest or weed control at 5 g/ha (ECHCG [11]; Echinochloa crus-galli, 504 h, dosage 5 g/ha): 90%
pest or weed control at 20 g/ha (ECHCG [11]; Echinochloa crus-galli, 504 h, dosage 20 g/ha): 90%
pest or weed control at 20 g/ha (VIOTR [12]; Viola tricolor, 504 h, dosage 20 g/ha): 90%
pest or weed control at 80 g/ha (VIOTR [12]; Viola tricolor, 504 h, dosage 80 g/ha): 100%
pest or weed control at 20 g/ha (AMARE [13]; Amaranthus retroflexus, 504 h, 20 g/ha, scored visually after 3 weeks vs untreated controls, 100% = plants have died, 0% = like control plants): 100%
pest or weed control at 80 g/ha (AMARE [13]; Amaranthus retroflexus, 504 h, 80 g/ha, scored visually after 3 weeks vs untreated controls, 100% = plants have died, 0% = like control plants): 100%
pest or weed control at 5 g/ha (MATIN [14]; Tripleurospermum inodorum, 504 h, dosage 5 g/ha): 80%
pest or weed control at 20 g/ha (MATIN [14]; [19]): 80%
pest or weed control at 20 g/ha (DIGSA; Digitaria sanguinalis, 504 h, dosage 20 g/ha): 100%
pest or weed control at 80 g/ha (DIGSA; Digitaria sanguinalis, 504 h, dosage 80 g/ha): 100%
pest or weed control at 20 g/ha (PHBPU [15]; [18]): 80%
pest or weed control at 80 g/ha (PHBPU [15]; Ipomoea purpurea, 504 h, dosage 80 g/ha): 90%
pest or weed control at 80 g/ha (ABUTH; Abutilon theophrasti, 504 h, 80 g/ha, scored visually after 3 weeks vs untreated controls (100% = plants have died, 0% = like control plants)): 100%
pest or weed control at 20 g/ha (ABUTH; Abutilon theophrasti, 504 h, dosage 20 g/ha, scored visually after 3 weeks vs untreated controls, 100% = plants have died, 0% = like control plants, read-out: Pre-emergence action against ABUTH (herbicidal activity in percent)): 100%
